Drawing on US8242174B2 (priority 2007, dated 2012), this text covers Ki for 30 compounds.

The target of the assay is Lethal factor protease (Bacillus anthracis, UniProt P15917). Description: biochemical.
Chain of Lethal factor protease (P15917 34-809 limits assumed): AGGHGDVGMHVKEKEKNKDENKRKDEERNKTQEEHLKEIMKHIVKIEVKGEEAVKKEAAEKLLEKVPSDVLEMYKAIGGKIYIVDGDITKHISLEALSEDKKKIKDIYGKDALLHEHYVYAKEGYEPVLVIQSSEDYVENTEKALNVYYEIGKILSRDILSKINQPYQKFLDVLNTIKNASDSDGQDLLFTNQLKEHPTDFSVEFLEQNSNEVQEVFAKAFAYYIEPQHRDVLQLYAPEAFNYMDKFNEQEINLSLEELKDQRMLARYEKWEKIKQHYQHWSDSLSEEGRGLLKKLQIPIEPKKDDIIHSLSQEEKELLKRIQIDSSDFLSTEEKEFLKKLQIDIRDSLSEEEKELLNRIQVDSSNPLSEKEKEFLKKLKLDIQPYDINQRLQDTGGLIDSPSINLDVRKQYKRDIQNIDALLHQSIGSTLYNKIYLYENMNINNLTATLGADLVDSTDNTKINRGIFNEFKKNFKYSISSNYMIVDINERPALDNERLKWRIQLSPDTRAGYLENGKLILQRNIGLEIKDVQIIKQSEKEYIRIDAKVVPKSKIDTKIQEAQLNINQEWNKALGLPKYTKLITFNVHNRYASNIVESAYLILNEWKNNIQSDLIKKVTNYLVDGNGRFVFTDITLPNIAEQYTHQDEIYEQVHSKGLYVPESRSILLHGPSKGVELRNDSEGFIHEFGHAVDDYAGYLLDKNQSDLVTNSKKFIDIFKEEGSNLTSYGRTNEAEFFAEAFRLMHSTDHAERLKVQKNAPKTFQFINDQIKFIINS
Take `CCCCC(Nc1cccc(C(C)C)c1)C(=O)NO` (stereo not drawn) [Compound 167183, 2-(3-Isopropyl-phenylamino)-hexanoic acid hydroxyamide]: the Ki (commonly the dissociation constant of the complex between target and ligand, obtained from inhibition or displacement) was > 300 µM. With `CCCCC(Nc1cccc(F)c1)C(=O)NO` (stereo not drawn) [Compound 167277, 2-(3-Fluoro-phenylamino)-hexanoic acid hydroxyamide] the figure was 134 µM; with `Cc1cccc(CN(CCCC[C@@H](Nc2cc(C)c(F)c(C)c2)C(=O)NO)Cc2cccc(C)c2)c1` [Compound 167932, (R)-6-[Bis-(3-methyl-benzyl)-amino]-2-(4-fluoro-3,5-dimethyl-phenylamino)-hexanoic acid hydroxyamide], 1.1 µM. The compound `CCCCC(Nc1ccc(F)c(Cl)c1)C(=O)NO` (stereo not drawn) [Compound 167322, 2-(3-Chloro-4-fluoro-phenylamino)-hexanoic acid hydroxyamide] yielded a Ki of 17.1 µM. Against the preceding compound, the Ki is about 16-fold higher. With `CCCCC(Nc1cc(F)cc(F)c1)C(=O)NO` (stereo not drawn) [Compound 167807, 2-(3,5-Difluoro-phenylamino)-hexanoic acid hydroxyamide] the figure was 228 µM. With `Cc1cc(N[C@H](C)C(=O)NO)ccc1F` [Compound 167392, (R)-2-(4-Fluoro-3-methyl-phenylamino)-N-hydroxy-propionamide] the figure was 0.96 µM; with `Cc1cc(N[C@H](CCCCNCc2cccc(-c3ccccc3)c2)C(=O)NO)ccc1F` [Compound 168165, (R)-6-[(Biphenyl-3-ylmethyl)-amino]-2-(4-fluoro-3-methyl-phenylamino)-hexanoic acid hydroxyamide], 0.12 µM. Turning to `Cc1cc(N[C@H](CCCCN(Cc2cc(C)c(F)c(C)c2)Cc2cc(C)c(F)c(C)c2)C(=O)NO)ccc1F` [Compound 167971, (R)-6-[Bis-(4-fluoro-3,5-dimethyl-benzyl)-amino]-2-(4-fluoro-3-methyl-phenylamino)-hexanoic acid hydroxyamide], the affinity corresponds to a Ki of 5.2 µM.

`Cc1cc(N[C@H](CCCCN(Cc2ccccc2)Cc2ccccc2)C(=O)NO)ccc1F` [Compound 167982, (R)-6-Dibenzylamino-2-(4-fluoro-3-methyl-phenylamino)-hexanoic acid hydroxyamide] displayed a Ki of 1.8 µM.

`Cc1cc(N[C@H](CCCCN)C(=O)NO)cc(C)c1F` [Compound 167517, (R)-6-Amino-2-(4-fluoro-3,5-dimethyl-phenylamino)-hexanoic acid hydroxyamide] showed a Ki of 0.25 µM. The figure for `CCCCC(Nc1cccc(C)c1)C(=O)NO` (stereo not drawn) [Compound 167170, 2-m-Tolylamino-hexanoic acid hydroxyamide] is 34.1 µM; for `Cc1cc(N[C@H](CCCCNS(=O)(=O)c2cccc(N(C)C)c2)C(=O)NO)cc(C)c1F` [Compound 167700, (R)-6-(3-Dimethylamino-benzenesulfonylamino)-2-(4-fluoro-3,5-dimethyl-phenylamino)-hexanoic acid hydroxyamide] it is 0.88 µM; for `CCCCC(Nc1ccc(C)cc1)C(=O)NO` (stereo not drawn) [Compound 167255, 2-p-Tolylamino-hexanoic acid hydroxyamide] it is 296 µM. The figure for `CCCC(CCC)CNCCCC[C@@H](Nc1ccc(F)c(C)c1)C(=O)NO` [Compound 168167, (R)-2-(4-Fluoro-3-methyl-phenylamino)-6-(2-propyl-pentylamino)-hexanoic acid hydroxyamide] is 0.25 µM; for `Cc1cc(N[C@@H](C)C(=O)NO)cc(C)c1F` [Compound 167498, (S)-2-(4-Fluoro-3,5-dimethyl-phenylamino)-N-hydroxy-propionamide] it is 51 µM. The figure for `CCCCC(Nc1cc(C)cc(F)c1)C(=O)NO` (stereo not drawn) [Compound 167722, 2-(3-Fluoro-5-methyl-phenylamino)-hexanoic acid hydroxyamide] is 19 µM; for `Cc1cc(N[C@H](CCCCNCC2CCCCC2)C(=O)NO)ccc1F` [Compound 168146, (R)-6-(Cyclohexylmethyl-amino)-2-(4-fluoro-3-methyl-phenylamino)-hexanoic acid hydroxyamide] it is 0.25 µM; for `Cc1cc(N[C@@H](C(=O)NO)c2ccccc2)cc(C)c1F` [Compound 167425, (R)-2-(4-Fluoro-3,5-dimethyl-phenylamino)-N-hydroxy-2-phenyl-acetamide] it is 0.48 µM.

In the case of `Cc1cc(N[C@H](CCCCNCc2ccc3sccc3c2)C(=O)NO)ccc1F` [Compound 168182, (R)-6-[(Benzo[b]thiophen-5-ylmethyl)-amino]-2-(4-fluoro-3-methyl-phenylamino)-hexanoic acid hydroxyamide], the affinity, expressed as Ki, was 0.15 µM. The figure for `Cc1cc(N[C@H](CCCCNCc2cccc([N+](=O)[O-])c2)C(=O)NO)cc(C)c1F` [Compound 167737, (R)-2-(4-Fluoro-3,5-dimethyl-phenylamino)-6-(3-nitro-benzylamino)-hexanoic acid hydroxyamide] is 0.07 µM; for `Cc1cc(N[C@H](CCCCNCc2ccc(Cl)cc2)C(=O)NO)ccc1F` [Compound 168181, (R)-6-(4-Chloro-benzylamino)-2-(4-fluoro-3-methyl-phenylamino)-hexanoic acid hydroxyamide] it is 0.19 µM; for `CCCCC(Nc1ccccc1C)C(=O)NO` (stereo not drawn) [Compound 167292, 2-o-Tolylamino-hexanoic acid hydroxyamide] it is 273 µM. The figure for `Cc1cc(N[C@H](CCCCN(Cc2ccc(F)nc2)Cc2ccc(F)nc2)C(=O)NO)ccc1F` [Compound 168080, (R)-6-[Bis-(6-fluoro-pyridin-3-ylmethyl)-amino]-2-(4-fluoro-3-methyl-phenylamino)-hexanoic acid hydroxyamide] is 10.6 µM; for `CCCCC(Nc1cc(C)c(F)c(C)c1)C(=O)NO` (stereo not drawn) [Compound 167454, 2-(4-Fluoro-3,5-dimethyl-phenylamino)-hexanoic acid hydroxyamide] it is 0.8 µM; for `CCCCC(Nc1cc(C)cc(Cl)c1)C(=O)NO` (stereo not drawn) [Compound 167645, 2-(3-Chloro-5-methyl-phenylamino)-hexanoic acid hydroxyamide] it is 2.2 µM. With `CCCC[C@H](Nc1cc(C)c(F)c(C)c1)C(=O)NO` [Compound 167295, (S)-2-(4-Fluoro-3,5-dimethyl-phenylamino)-hexanoic acid hydroxyamide] the figure was 106 µM. Compound `CCCC[C@H](Nc1ccc(F)c(C)c1)C(=O)NO` [Compound 167274, (S)-2-(4-Fluoro-3-methyl-phenylamino)-hexanoic acid hydroxyamide] came in with a Ki of 116 µM. The Ki values of the last two compounds are within 1.5-fold of each other.

Regarding `Cc1cc(N[C@H](CCCCNS(C)(=O)=O)C(=O)NO)cc(C)c1F` [Compound 167531, (R)-2-(4-Fluoro-3,5-dimethyl-phenylamino)-6-methanesulfonylamino-hexanoic acid hydroxyamide], the Ki worked out at 1 µM. Against the preceding compound, the Ki is about 120-fold lower. The figure for `CC(=O)NCCCC[C@@H](Nc1cc(C)c(F)c(C)c1)C(=O)NO` [Compound 167552, (R)-6-Acetylamino-2-(4-fluoro-3,5-dimethyl-phenylamino)-hexanoic acid hydroxyamide] is 2.53 µM. The figure for `Cc1cc(N[C@H](CCCCN(Cc2ccc(F)cc2)Cc2ccc(F)cc2)C(=O)NO)cc(C)c1F` [Compound 168047, (R)-6-[Bis-(4-fluoro-benzyl)-amino]-2-(4-fluoro-3,5-dimethyl-phenylamino)-hexanoic acid hydroxyamide] is 0.79 µM.
